Assay results as given in patent US10612035B2, “EPSPS mutants” (priority 2006, dated 2020).

Assays:
[1] = molecular target: wild-type EPSPS from E. coli (Escherichia coli, UniProt P0A6D3); conditions: read-out: apparent Km for PEP; cited from earlier work
[2] = system: Canola plants regenerated that contain the P178A mutant; conditions: applied at commercial rates; canola with P178A EPSPS mutant
Text: The following genoplast (recombinagenic oligonucleobase) was made to make a P178A change in Brassica napus (canola) germplasm:
(§1) wherein V is a fluorescent dye (V=Cy3) and H is a reverse nucleotide or reverse base (H=3′DMTdCCPG). The underlined nucelobases represent the heterologous region (codon) where the mutation occurs in the canola genome, ie, A. The genoplast is made according to well known techniques and the genoplast is preferably delivered into a canola plant cell via microparticle bombardment, ie, biolistics.

[3] = system: Rice plants regenerated that contain the P173A mutant; conditions: applied at commercial rates; rice with P173A EPSPS mutant
Text: The following genoplast (recombinagenic oligonucleobase) was made to make a P173A change in Oryza sativa (rice) germplasm:
as §1, with “nucleobases” for “nucelobases”, “rice” for “canola”

[4] = system: EPSPS mutations in E coli (Area) and Arabidopsis NM 130093; conditions: mutations 1-9 of the table
Text: To identify mutant EPSPS genes that will produce a gene product that provides resistance to glyphosate, in vitro screening can be done in a bacterial system to save time and resources. Growth curves of bacterial colonies expressing candidate mutant EPSPS genes can be generated to evaluate the mutant EPSPS genes in providing a glyphosate resistant phenotype. […] In another embodiment of the present invention, the E coli EPSPS gene, also called the AroA gene, can be used to evaluate EPSPS mutants for glyphosate resistance. Growth curve assays and enzymatic assays measuring Ki and Km values for candidate mutants are conducted according to well known assay techniques.

Chain of wild-type EPSPS from E. coli (P0A6D3 whole entry): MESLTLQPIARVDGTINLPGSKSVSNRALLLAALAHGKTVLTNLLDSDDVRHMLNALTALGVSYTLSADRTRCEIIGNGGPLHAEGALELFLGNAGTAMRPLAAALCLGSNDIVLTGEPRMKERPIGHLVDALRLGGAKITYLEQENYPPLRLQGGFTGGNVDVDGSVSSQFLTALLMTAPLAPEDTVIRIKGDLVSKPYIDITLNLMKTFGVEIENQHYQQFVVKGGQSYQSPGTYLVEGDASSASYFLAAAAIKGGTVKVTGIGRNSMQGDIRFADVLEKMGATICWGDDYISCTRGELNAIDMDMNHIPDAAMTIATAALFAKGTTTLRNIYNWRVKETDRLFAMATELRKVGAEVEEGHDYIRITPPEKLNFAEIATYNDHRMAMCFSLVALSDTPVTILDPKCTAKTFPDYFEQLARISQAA

| Compound | Km [1] | resistance of plants to glyphosate [2] | resistance of plants to glyphosate [3] | glyphosate resistant phenotype [4] |
| --- | --- | --- | --- | --- |
| C=C(OP(=O)(O)O)C(=O)O [PEP, phosphoenolpyruvic acid] | 10 µM | – | – | – |
| O=C(O)CNCP(=O)(O)O [glyphosate, N-phosphonomethylglycine] | – | resistant | resistant | resistant |
